Data taken from article PMC5933782, “Molecular structures of cdc2-like kinases in complex with a new inhibitor chemotype” (PLoS ONE, 2018).

Legend:
[1] = test system: MDA-MB-231 breast cancer cells; assay: crystal violet proliferation assay; assay type: cell-based; settings: Homo sapiens, 96 h exposure, triplicate
Experimental: (§1) For experiments with RC-124 cells, microtiter plates had been pretreated in the following way: 30 μL of a sterilized gelatine solution (1.5% (m/V)) were added to each well of flat bottom 96-well plates, the plates were covered with their lids, incubated for 1h at 37°C, the excess solution was removed, the wells were washed with PBS 7.4 pH, and the new cell-culture medium was added.
(§2) The antiproliferative effects were determined according to a routinely used method. In short: a volume of 100 μL of HT-29 cells (2565 cells/mL), MDA-MB-231 cells (4120 cells/mL), MCF-7 cells (4840 cells/mL) or RC-124 cells (1460 cells/mL) was transferred into the wells of 96-well plates (note: for RC-124 pretreated plates were used, see above) and incubated at 37°C/5% CO2 for 72 h (MCF-7, MDA-MB-231, RC-124) or 48 h (HT-29). Stock solutions of 8c in DMSO were prepared and diluted with the respective cell culture medium to graded concentrations (final concentration of […]: 0.1% v/v). […] Results were calculated as the mean values of three independent experiments.

[2] = test system: MCF-7 breast carcinoma cells; assay: crystal violet proliferation assay; assay type: cell-based; settings: Homo sapiens, MCF7, 96 h exposure, duplicate
Experimental: as §1, §2

[3] = test system: HT-29 colon carcinoma cells; assay: crystal violet proliferation assay; assay type: cell-based; settings: Homo sapiens, 72 h exposure, triplicate
Experimental: as §1, §2

[4] = test system: RC-124 healthy human kidney cells; assay: crystal violet proliferation assay; assay type: cell-based; settings: 96 h exposure, triplicate
Experimental: as §1, §2

CK1δ/ε = assay: radiometric protein kinase assay; assay type: biochemical, porcine; settings: 15 μmol/L ATP; read-out: IC50 CK1
GSK-3 = assay: radiometric protein kinase assay; assay type: biochemical, porcine; settings: 15 μmol/L ATP; read-out: IC50 GSK3
CDK9/cyclin T = CDK9/cyclin T (Homo sapiens, UniProt P50750); assay: radiometric protein kinase assay
Experimental: Buffers. Buffer A: 10 mM MgCl2, 1 mM EGTA, 1 mM DTT, 25 mM Tris-HCl pH 7.5, 50 μg heparin/mL. Buffer C: 60 mM β-glycerophosphate, 15 mM p-nitrophenylphosphate, 25 mM MOPS (pH 7.2), 15 mM EGTA, 15 mM MgCl2, 1 mM DTT, 1 mM sodium vanadate, 1 mM phenylphosphate.
Kinase activities were assayed in buffer A or C at 30°C at a final ATP concentration of 15 μmol/L. Blank values were subtracted and activities were expressed in percent of the maximal activity, i.e. in the absence of inhibitors. Controls were performed with appropriate dilutions of DMSO.
Their kinase activity was assayed in buffer A, with 1 mg histone H1/mL, in the presence of 15 μmol/L [γ-33P] ATP (3,000 Ci/mmol; 10 mCi/mL) in a final volume of 30 μL. After 30 min incubation at 30°C, the reaction was stopped by harvesting onto P81 phosphocellulose supernatant (Whatman) using a FilterMate harvester (Packard) and washing in 1% phosphoric acid. Scintillation fluid was added and the radioactivity measured in a Packard counter.
(§3) All data points for construction of dose response curves were recorded in triplicate.

CDK1/cyclin B = assay: radiometric protein kinase assay; assay type: biochemical, starfish; settings: 15 μmol/L ATP
DYRK3 = biological target: T1, DYRK3 (Homo sapiens, UniProt O43781); assay: radiometric protein kinase assay; assay type: biochemical; settings: 15 μmol/L ATP; read-out: IC50 DYRK 3
T1 sequence (O43781 1-588): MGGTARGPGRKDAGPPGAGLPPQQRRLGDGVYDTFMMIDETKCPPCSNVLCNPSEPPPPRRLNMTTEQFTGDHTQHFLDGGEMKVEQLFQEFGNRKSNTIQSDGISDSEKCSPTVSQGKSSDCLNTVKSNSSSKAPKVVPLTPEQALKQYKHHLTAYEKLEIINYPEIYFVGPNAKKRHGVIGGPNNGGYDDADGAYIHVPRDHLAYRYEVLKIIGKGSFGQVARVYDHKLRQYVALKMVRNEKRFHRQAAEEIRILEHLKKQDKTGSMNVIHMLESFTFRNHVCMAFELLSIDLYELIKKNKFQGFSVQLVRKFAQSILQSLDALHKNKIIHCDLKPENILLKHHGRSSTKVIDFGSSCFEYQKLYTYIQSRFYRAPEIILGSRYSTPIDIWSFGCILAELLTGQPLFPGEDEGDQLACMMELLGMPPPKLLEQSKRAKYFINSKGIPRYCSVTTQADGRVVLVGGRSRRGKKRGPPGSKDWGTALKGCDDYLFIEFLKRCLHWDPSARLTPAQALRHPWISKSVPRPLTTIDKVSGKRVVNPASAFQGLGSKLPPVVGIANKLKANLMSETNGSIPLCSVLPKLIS

CLK1 = CLK1 (Mus musculus, UniProt P22518); assay: radiometric protein kinase assay
Experimental: Buffer A: 10 mM MgCl2, 1 mM EGTA, 1 mM DTT, 25 mM Tris-HCl pH 7.5, 50 μg heparin/mL. Buffer C: 60 mM β-glycerophosphate, 15 mM p-nitrophenylphosphate, 25 mM MOPS (pH 7.2), 15 mM EGTA, 15 mM MgCl2, 1 mM DTT, 1 mM sodium vanadate, 1 mM phenylphosphate.
Controls were performed with appropriate dilutions of DMSO. The GS-1, CKS, CDK7/9 tide and RS peptide substrates were obtained from Proteogenix (Oberhausbergen, France).
CDK1/cyclin B (M phase starfish oocytes, native), CDK2/cyclin A and CDK5/p25 (human, recombinant) were prepared as previously described [33]. […] ATP (3,000 Ci/mmol; 10 mCi/mL) in a final volume of 30 μL. After 30 min incubation at 30°C, the reaction was stopped by harvesting onto P81 phosphocellulose supernatant (Whatman) using a FilterMate harvester (Packard) and washing in 1% phosphoric acid. Scintillation fluid was added and the radioactivity measured in a Packard counter.
as §3

UACC-257 = assay: NCI cancer cell line screening; assay type: cell-based, human
Experimental: Being the most promising compound in terms of CLK1 inhibitory potency and selectivity, KuWal151 (8c) was tested in the National Cancer Institute cancer cell line screening on 57 tumor cell lines of different tissue origin [45]. With only a few exceptions, KuWal151 inhibited the growth of most cell lines in submicromolar concentrations. In Table 2 the cancer cell line inhibition data is listed with the expression rates of SPF45 and CLK1 as indicated in the Expression Atlas database (https://www.ebi.ac.uk/gxa/home). Apparently the cell lines with high levels of CLK1 encoding RNA are inhibited over average. […] However, the available data are not sufficient to construe a clear relationship between the expression levels of the putative target CLK1 and sensitivity of the cell lines against 8c. The same holds true for SPF45, an important substrate of CLK1 involved in splicing which is found to be overexpressed in many cancer cell lines. […] The lack of a straight relationship between CLK1 and/or SPF45 expression levels on the one hand and sensitivity against the CLK1 inhibitor 8c on the other hand may have various reasons, e.g. different uptake rates of the inhibitor by the cells or alternative intracellular targets. […]

CLK3 = CLK3 (Mus musculus, UniProt O35492); assay: radiometric protein kinase assay
Sequence of CLK3 (O35492 whole entry): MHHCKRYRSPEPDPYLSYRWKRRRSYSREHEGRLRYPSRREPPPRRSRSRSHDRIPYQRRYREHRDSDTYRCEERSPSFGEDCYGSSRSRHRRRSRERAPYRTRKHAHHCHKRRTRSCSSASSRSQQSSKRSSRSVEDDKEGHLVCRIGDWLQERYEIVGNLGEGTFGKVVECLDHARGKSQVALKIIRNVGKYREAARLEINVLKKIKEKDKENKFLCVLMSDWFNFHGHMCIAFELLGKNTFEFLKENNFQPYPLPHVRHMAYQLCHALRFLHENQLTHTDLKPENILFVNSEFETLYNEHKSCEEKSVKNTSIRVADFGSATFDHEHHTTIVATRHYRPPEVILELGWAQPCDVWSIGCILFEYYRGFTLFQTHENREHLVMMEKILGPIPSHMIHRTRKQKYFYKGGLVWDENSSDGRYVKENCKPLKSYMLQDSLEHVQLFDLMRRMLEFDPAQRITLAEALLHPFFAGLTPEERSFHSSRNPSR

Sequence of CDK9/cyclin T (P50750 whole entry): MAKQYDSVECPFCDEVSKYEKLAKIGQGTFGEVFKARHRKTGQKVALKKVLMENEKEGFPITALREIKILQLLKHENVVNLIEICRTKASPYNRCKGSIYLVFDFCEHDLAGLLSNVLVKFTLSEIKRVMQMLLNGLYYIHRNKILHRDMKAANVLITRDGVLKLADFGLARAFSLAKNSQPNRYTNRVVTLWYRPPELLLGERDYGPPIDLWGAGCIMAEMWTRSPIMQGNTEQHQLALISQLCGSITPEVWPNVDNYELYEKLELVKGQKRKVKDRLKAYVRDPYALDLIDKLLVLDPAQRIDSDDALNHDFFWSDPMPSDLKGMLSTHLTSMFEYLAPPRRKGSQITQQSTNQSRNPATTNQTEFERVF
Sequence of CDK9/cyclin T (O60563 whole entry partner): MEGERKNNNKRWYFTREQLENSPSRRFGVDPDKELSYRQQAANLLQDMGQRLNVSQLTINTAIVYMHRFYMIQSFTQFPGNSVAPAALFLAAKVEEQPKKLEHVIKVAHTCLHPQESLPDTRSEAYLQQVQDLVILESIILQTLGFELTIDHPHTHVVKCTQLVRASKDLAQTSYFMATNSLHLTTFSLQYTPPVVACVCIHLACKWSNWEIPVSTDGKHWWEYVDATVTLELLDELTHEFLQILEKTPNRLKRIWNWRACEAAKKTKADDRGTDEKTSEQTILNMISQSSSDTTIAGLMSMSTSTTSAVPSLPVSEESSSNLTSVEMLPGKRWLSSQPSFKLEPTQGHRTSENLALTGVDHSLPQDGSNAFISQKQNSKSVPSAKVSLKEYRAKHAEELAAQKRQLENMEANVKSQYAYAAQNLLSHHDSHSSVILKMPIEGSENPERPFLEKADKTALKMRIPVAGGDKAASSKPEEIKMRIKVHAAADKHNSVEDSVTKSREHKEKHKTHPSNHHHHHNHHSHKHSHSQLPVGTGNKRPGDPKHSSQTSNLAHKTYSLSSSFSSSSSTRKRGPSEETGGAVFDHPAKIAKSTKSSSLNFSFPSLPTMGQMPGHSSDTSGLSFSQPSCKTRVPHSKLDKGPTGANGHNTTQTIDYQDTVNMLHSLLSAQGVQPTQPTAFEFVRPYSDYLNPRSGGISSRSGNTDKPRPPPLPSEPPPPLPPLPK
Sequence of CLK1 (P22518 whole entry): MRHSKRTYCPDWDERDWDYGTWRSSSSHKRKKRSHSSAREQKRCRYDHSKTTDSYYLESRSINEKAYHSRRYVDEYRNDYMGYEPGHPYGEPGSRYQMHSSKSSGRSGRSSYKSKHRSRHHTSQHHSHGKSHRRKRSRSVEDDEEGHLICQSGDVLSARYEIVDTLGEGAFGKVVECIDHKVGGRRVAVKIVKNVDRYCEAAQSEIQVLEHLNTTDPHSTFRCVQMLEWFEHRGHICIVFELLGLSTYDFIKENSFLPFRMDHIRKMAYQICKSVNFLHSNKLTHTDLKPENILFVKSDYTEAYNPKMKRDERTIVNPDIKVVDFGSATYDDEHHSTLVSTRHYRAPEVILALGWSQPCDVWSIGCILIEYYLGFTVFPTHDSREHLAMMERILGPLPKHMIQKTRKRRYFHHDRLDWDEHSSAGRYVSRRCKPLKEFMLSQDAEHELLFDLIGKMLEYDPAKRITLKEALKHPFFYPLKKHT

**Q.** For `O=C1NCc2ccc3c(-c4cccc(Cl)c4)c[nH]c3c21` [8c, 3-(3-Chlorophenyl)-6,7-dihydropyrrolo[3,4-g]indol-8(1H)-one], which GI50 [1] is on record?
**A.** Its GI50 is 280 ± 50 nM.

**Q.** And the GI50 [2]?
**A.** Its GI50 is 350 ± 160 nM.

**Q.** What about the GI50 [3] of the same molecule?
**A.** Its GI50 is 120 ± 10 nM.

**Q.** And the GI50 [4]?
**A.** The GI50 was 440 ± 100 nM.

**Q.** And the IC50 (CK1δ/ε)?
**A.** Its IC50 is > 10000 nM.

**Q.** What about the IC50 (GSK-3) of the same molecule?
**A.** The IC50 was > 10000 nM.

**Q.** And the IC50 (CDK9/cyclin T)?
**A.** Its IC50 is > 10000 nM.

**Q.** And the IC50 (CDK1/cyclin B)?
**A.** The IC50 was > 10000 nM.

**Q.** And the IC50 (DYRK3)?
**A.** Its IC50 is > 10000 nM.

**Q.** And the IC50 (CLK1)?
**A.** Its IC50 is 88 nM.

**Q.** What about the GI50 (UACC-257; Homo sapiens, UACC-257, UACC-257, Melanoma) of the same molecule?
**A.** Its GI50 is > 50000 nM.

**Q.** And the GI50 (UACC-257; UACC-257, Melanoma)?
**A.** Its GI50 is > 50100 nM.

**Q.** What about the IC50 (CLK3) of the same molecule?
**A.** Its IC50 is > 10000 nM.
